How the values were obtained:
[1] = test system: lipoxygenase / cyclooxygenase; conditions: prior art; cited from earlier work
[2] = test system: leucocytes (migration); experiment: Inhibition of the migration of leucocytes, sponge soaked in active compound introduced under the dorsal skin of rats; assay type: in vivo; conditions: rat, local dose 10 mg/rat; for inhibition in vivo at 10 mg: Leucocyte, read-out: Inhibition of the migration of leucocytes (control = 0%)
From the text: The sulphenamides used according to the present invention are also active in vivo. […] Table 2 which follows summarises the activities of some illustrative sulphenamides after local administration, by introduction of a piece of sponge soaked in the active compound under the dorsal skin of rats.

[3] = biological target: T1, platelet lipoxygenase (Homo sapiens, UniProt P18054); experiment: Inhibition of the platelet lipoxygenase (synthesis of HETE), metabolism of radioactively labelled arachidonic acid by washed human platelets; assay type: cell-based; conditions: in vitro
T1 construct: metabolism of radioactively labelled arachidonic acid by washed human platelets; endogenous in cells; host or cells: washed human platelets
T1 sequence (P18054 1-663): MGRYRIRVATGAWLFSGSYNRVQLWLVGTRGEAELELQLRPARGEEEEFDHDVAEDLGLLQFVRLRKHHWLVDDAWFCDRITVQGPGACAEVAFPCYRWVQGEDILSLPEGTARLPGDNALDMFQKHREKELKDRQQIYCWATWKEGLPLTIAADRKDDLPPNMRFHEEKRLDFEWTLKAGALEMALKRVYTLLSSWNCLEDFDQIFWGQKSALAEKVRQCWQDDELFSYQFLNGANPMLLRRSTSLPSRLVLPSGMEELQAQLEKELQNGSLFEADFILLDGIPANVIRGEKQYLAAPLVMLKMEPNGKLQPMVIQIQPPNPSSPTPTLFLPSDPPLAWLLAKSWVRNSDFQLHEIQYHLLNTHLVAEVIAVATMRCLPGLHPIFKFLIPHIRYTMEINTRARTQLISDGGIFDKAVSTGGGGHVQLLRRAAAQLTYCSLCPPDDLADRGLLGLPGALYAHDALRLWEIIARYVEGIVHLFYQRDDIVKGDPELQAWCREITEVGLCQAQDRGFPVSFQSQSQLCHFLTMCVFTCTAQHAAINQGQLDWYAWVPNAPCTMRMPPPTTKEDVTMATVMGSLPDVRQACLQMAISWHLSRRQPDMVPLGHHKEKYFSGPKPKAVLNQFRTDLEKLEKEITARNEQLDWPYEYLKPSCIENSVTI
Procedure: In this test method, the metabolism of radioactively labelled arachidonic acid by washed human platelets is investigated. In this in vitro test, the radioactively labelled metabolites are extracted from the reaction mixture and separated by thin layer chromatography. The autoradiogram is evaluated on the thin layer scanner. Under these test conditions, the labelled metabolites are separated from the unreacted arachidonic acid and can subsequently be quantitatively evaluated. The distribution of the radioactivity in the cyclooxygenase products, formed during metabolism, thomboxane B2 (TXB2) and 12-hydroxy-5,8,10-heptadecatrienic acid (HHT) and the lipoxygenase product 12-hydroxy-5,8,11,14-eicosatetraenoic acid (HETE) as influenced by the inhibitors, gives a measure of the inhibition of the enzymes.
The inhibition of lipoxygenase by the sulphenamides which can be used according to the invention can be measured by the inhibition of the synthesis of HETE. […] Inhibition of the platelet lipoxygenase (synthesis of HETE)

| Compound | Minimum effective inhibitory concentration (at least 50% inhibition) [3] | inhibition in vivo at 10 mg [2] | also measured |
| --- | --- | --- | --- |
| CCCCCC#CCC#CCC#CCC#CCCCC(=O)O [5,8,11,14-eicosatetrainoic acid] | – | – | activity of known inhibitors of lipoxygenase, in words [1]: either simultaneously active as inhibitors of cyclooxygenase, or only active at very high concentrations |
| Cc1ccc(Sn2cnc(N)n2)cc1 [Example 4] | – | 61% | – |
| Clc1ccc(SNc2nnc(N3CCOCC3)s2)cc1 [Example 5] | – | 22% | – |
| c1ccc(CNSc2nnnn2-c2ccccc2)cc1 [Example 10] | – | 26% | – |
| c1ccc(-n2nnnc2SNc2nc[nH]n2)cc1 [Example 11] | – | 22% | – |
| CC1(C)OC(C)(C)N(Sc2ccc(Cl)cc2)C1=O [Example 15] | – | 47% | – |
| Cc1ccc(SN2C(=O)C(C)(C)OC2(C)C)cc1 [Example 16] | – | 40% | – |
| O=C1CCCN1Sc1ccc(Cl)c(C(F)(F)F)c1 [Example 20] | – | 64% | – |
| O=C1CCCN1Sc1cc(C(F)(F)F)ccc1Cl [Example 21] | – | 44% | – |
| COC(=O)c1ccc(SN2CCCC2=O)cc1 [Example 22] | – | 64% | – |
| O=C1c2ccccc2C(=O)N1SC1CCCCC1 [Example 32] | 3e-06 g/mL | 38% | – |
| O=C1c2ccc([N+](=O)[O-])cc2C(=O)N1Sc1ccccc1 [Example 36] | – | 64% | – |
| O=C1c2ccc([N+](=O)[O-])cc2C(=O)N1Sc1ccc(Cl)cc1 [Example 38] | – | 56% | – |
| O=C1c2ccc([N+](=O)[O-])cc2C(=O)N1Sc1ccccc1 [Example 39] | 10^-6 g/ml | – | – |
| O=C1c2ccc([N+](=O)[O-])cc2C(=O)N1Sc1ccc(Cl)cc1 [Example 40] | 3e-06 g/mL | – | Inhibition of the migration of leucocytes (control = 0%) [2]: 41% |
| O=c1c2cc3c(=O)n(Sc4ccccc4)c(=O)c3cc2c(=O)n1Sc1ccccc1 [Example 45] | – | 40% | – |
| O=C1c2cccc3cccc(c23)C(=O)N1Sc1ccccc1 [Example 47] | – | 21% | – |
| O=C1CCCCCCCCCCN1Sc1ccccc1 [Example 58] | – | 78% | – |
| O=C1C(=O)N(Sc2ccc(Cl)cc2)c2ccccc21 [Example 69] | – | 20% | – |
| O=c1oc2ccccc2c(=O)n1SC1CCCCC1 [Example 76] | 3e-06 g/mL | – | – |
| CC(Cc1ccc(O)c(O)c1)C(C)Cc1ccc(O)c(O)c1 (centres unmarked) [nordihydroguaiaretic acid] | – | – | activity of known inhibitors of lipoxygenase, in words [1]: either simultaneously active as inhibitors of cyclooxygenase, or only active at very high concentrations |
| O=C1CCN(c2ccccc2)N1 [phenidone] | – | – | activity of known inhibitors of lipoxygenase, in words [1]: either simultaneously active as inhibitors of cyclooxygenase, or only active at very high concentrations |

Now from value to compound, other results behind:

| Minimum effective inhibitory concentration (at least 50% inhibition) [3] | Compound | inhibition in vivo at 10 mg [2] | also measured |
| --- | --- | --- | --- |
| 10^-6 g/ml | Nc1ncn(Sc2ccccc2)n1 [Example 2] | 70% | – |
| 10^-6 g/ml | Nc1ncn(Sc2ccc(Cl)cc2)n1 [Example 3] | – | – |
| 3e-06 g/mL | O=c1n(Sc2ccccc2)c(=O)n2c(=O)n(Sc3ccccc3)c(=O)n12 [Example 18] | 41% | – |
| 10^-6 g/ml | O=C1c2ccccc2C(=O)N1Sc1ccccc1 [Example 29] | 48% | – |
| 3e-06 g/mL | O=C1c2ccccc2C(=O)N1Sc1ccc(Cl)cc1 [Example 30] | – | – |
| 3e-06 g/mL | Cc1ccc(SN2C(=O)c3ccccc3C2=O)cc1 [Example 31] | 43% | – |
| 3e-06 g/mL | CC(C)(C)c1ccc(SN2C(=O)c3ccccc3C2=O)cc1 [Example 35] | – | – |
| 3e-06 g/mL | O=C1c2c(Cl)c(Cl)c(Cl)c(Cl)c2C(=O)N1Sc1ccccc1 [Example 42] | – | – |
| 3e-06 g/mL | CC(C)(C)c1ccc(SN2C(=O)c3c(Cl)c(Cl)c(Cl)c(Cl)c3C2=O)cc1 [Example 43] | – | – |
| 10^-6 g/ml | O=C1CCCN1Sc1ccccc1 [Example 52] | 76% | – |
| 10^-6 g/ml | O=C1CCCN1Sc1ccc(Cl)cc1 [Example 53] | – | – |
| 10^-6 g/ml | CC(C)(C)c1ccc(SN2CCCC2=O)cc1 [Example 54] | – | – |
| 10^-6 g/ml | O=C1CCCCCN1Sc1ccccc1 [Example 55] | 78% | – |
| 3e-06 g/mL | O=C1CCCCCN1Sc1ccc(Cl)cc1 [Example 56] | 86% | – |
| 10^-5 g/ml | CC(C)(C)c1ccc(SN2CCCCCC2=O)cc1 [Example 57] | – | – |
| 3e-06 g/mL | O=C1c2ccccc2S(=O)(=O)N1Sc1ccccc1 [Example 60] | – | – |
| 10^-6 g/ml | O=C1c2ccccc2S(=O)(=O)N1Sc1ccc(Cl)cc1 [Example 61] | – | – |
| 3e-06 g/mL | CC(C)(C)c1ccc(SN2C(=O)c3ccccc3S2(=O)=O)cc1 [Example 62] | – | – |
| 3e-06 g/mL | O=C1C(=O)N(Sc2ccccc2)c2ccccc21 [Example 68] | – | – |
| 10^-6 g/ml | O=C1CCN(c2ccccc2)N1Sc1ccc(Cl)cc1 [Example 72] | – | – |
| 10^-6 g/ml | CC1=NN(Sc2ccccc2)C(=O)C1 [Example 74] | 52% | – |
| 3e-06 g/mL | Clc1ccc(Sn2cccn2)cc1 [Example 75] | – | – |
| 1e-05 g/mL | c1ccc2c(c1)ncn2SC1CCCCC1 [Example 80, 1-cyclohexylthiobenzimidazole] | – | – |
| 1e-05 g/mL | CCC(C)Sn1cnc2ccccc21 (centres unmarked) [Example 84] | – | – |
